# What was measured:
# [1] = biological target: T1, CYP2D6 (Homo sapiens, UniProt P10635); experiment: CYP inhibition assay in human liver microsome, CYP2D6; format: in vitro ADME; details: human, human liver microsomes, probe dextromethorphan 5 μM, substrate dextromethorphan 5 μM, second value of 2C9/2D6/3A4
# T1 construct: tissue BD-Gentest 452117; host or cells: human liver microsomes
# Method: This is a high throughput screening assay used for assessment of reversible inhibition of CYP2C9, CYP2D6, and CYP3A4 activity of test compounds in human liver microsome (HLM) in early discovery stage.
# 10 mM DMSO stock solutions of test compounds were diluted in DMSO to generate 2 mM intermediate stock solution. 250 nL, of intermediate stock solution were transferred in duplicate into 3 separate 384 well microtitre plates (assay-ready plates). A mixture of HLM and each substrate was made up. 45 μL of HLM substrate mix was then transferred to each well of an assay ready plate and mixed. The negative (solvent) and positive controls (standard inhibitor for each CYP) were included in each assay ready plate. The assay ready plate was warmed to 37° C. in an incubator over 10 minutes. 5 μL pre-warmed NADPH regenerating system was added to each incubation well to start the reaction. Final incubation volume was 50 μL. The assay plate then was placed back in the 37° C. incubator. After incubation (10 minutes for CYP2D6) for 5 minutes, incubates were quenched by addition of 50 μL 100% acetonitrile containing internal standards (400 ng/mL 13C6-4′-OH-Diclofenac, 20 ng/mL D3-Dextrorphan and 20 ng/mL D4-1′OH-Midazolam). The supernatants were collected for RapidFire/MS/MS analysis.
# RapidFire online solid phase extraction/sample injection system (Agilent) coupled with API4000 triple quadrupole mass spectrometer (AB Sciex) were used for sample analysis. The mobile phase composed of acetonitrile and water supplemented with 0.1% formic acid. A C4 solid phase extraction cartridge is used for sample separation. MS detection is achieved in positive ion MRM mode.
# Peak areas for substrate, metabolite and internal standard are determined using the RapidFire integrator software (version 3.6.12009.12296). Peak area ratios (PAR) of metabolite and internal standard (stable-labelled metabolite) are then calculated. The measurement window for each experiment is then defined:
# PAR (0% activity)=average PAR for all incubations containing concentrated inhibitor; Par (100% activity)=average PAR for all incubations containing no inhibitor (DMSO controls); % Activity (test inhibitor)=[PAR (test inhibitor)−PAR (0% activity)]/[PAR (100% activity)−PAR (0% activity)]; % Inhibition (test inhibitor)=100-% Activity (test inhibitor).
# [2] = biological target: T2, hERG channel (Homo sapiens, UniProt Q12809); experiment: hERG channel inhibition assay (patch-clamp, CHOhERG cells); format: cell-based; details: for IC20: human, CHO cells stably expressing hERG (CHOhERG); for IC20 / IC50: patch-clamp, CHOhERG cells; for hERG IC20/TLR7 IC50 / hERG IC20/TLR8 IC50 / hERG IC20/TLR9 IC50: safety ratio
# T2 construct: expressed in transfected cells; host or cells: CHO (Chinese hamster ovary)
# T2 sequence (Q12809 whole entry): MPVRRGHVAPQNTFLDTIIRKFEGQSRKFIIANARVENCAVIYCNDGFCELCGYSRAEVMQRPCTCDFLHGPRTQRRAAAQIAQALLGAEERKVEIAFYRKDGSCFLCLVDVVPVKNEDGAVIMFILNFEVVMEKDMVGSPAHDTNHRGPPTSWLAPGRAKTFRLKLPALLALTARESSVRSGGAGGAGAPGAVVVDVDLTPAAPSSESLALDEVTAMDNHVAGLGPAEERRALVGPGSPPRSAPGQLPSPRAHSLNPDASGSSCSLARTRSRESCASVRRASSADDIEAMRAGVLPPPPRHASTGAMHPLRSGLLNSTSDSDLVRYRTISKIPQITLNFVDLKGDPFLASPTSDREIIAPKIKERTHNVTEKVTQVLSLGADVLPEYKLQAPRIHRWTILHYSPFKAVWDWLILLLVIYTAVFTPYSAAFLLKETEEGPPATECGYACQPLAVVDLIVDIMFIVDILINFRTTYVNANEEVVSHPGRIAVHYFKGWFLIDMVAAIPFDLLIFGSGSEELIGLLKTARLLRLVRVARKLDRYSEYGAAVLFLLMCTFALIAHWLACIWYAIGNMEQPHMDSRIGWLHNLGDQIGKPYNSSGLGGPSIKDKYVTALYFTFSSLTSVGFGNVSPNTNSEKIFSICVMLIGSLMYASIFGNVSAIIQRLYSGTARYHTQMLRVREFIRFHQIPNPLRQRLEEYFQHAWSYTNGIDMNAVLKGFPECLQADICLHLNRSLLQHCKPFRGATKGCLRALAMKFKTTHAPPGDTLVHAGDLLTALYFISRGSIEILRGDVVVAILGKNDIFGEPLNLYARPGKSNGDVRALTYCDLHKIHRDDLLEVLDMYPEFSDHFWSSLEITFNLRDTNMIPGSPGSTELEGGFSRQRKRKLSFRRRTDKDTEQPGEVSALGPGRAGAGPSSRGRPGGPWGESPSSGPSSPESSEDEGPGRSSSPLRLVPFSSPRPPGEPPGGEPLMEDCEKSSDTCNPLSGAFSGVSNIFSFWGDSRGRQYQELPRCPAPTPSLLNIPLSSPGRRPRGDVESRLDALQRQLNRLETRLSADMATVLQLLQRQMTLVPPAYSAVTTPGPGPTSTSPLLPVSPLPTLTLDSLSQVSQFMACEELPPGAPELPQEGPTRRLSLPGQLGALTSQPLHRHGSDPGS
# Method: hERG Channel Inhibition Assay:
# The hERG K^+ channels were cloned in humans and stably expressed in a CHO (Chinese hamster ovary) cell line. CHOhERG cells were used for patch-clamp (voltage-clamp, whole-cell) experiments. Cells were stimulated by a voltage pattern to activate hERG channels and conduct IKhERG currents (rapid delayed outward rectifier potassium current of the hERG channel). After the cells were stabilized for a few minutes, the amplitude and kinetics of IKhERG were recorded at a stimulation frequency of 0.1 Hz, (6 bpm). Thereafter, the test compound was added to the preparation at increasing concentrations. For each concentration, an attempt was made to reach a steady-state effect, usually, this was achieved within 3-10 min at which time the next highest concentration was applied. The amplitude and kinetics of IKhERG are recorded in each concentration of the drug which were compared to the control values (taken as 100%). (references: Redfern W S, Carlsson L, Davis A S, Lynch W G, MacKenzie I, Palethorpe S, Siegl P K, Strang I, Sullivan A T, Wallis R, Camm A J, Hammond T G. 2003; Relationships between preclinical cardiac electrophysiology, clinical QT interval prolongation and torsade de pointes for a broad range of drugs: evidence for a provisional safety margin in drug development. Cardiovasc. Res. 58:32-45, Sanguinetti M C, Tristani-Firouzi M. 2006; hERG potassium channels and cardiac arrhythmia. Nature 440:463-469, Webster R, Leishman D, Walker D. 2002; Towards a drug concentration effect relationship for QT prolongation and torsades de pointes. Curr. Opin. Drug Discov. Devel. 5:116-26).
# T1 sequence (P10635 whole entry): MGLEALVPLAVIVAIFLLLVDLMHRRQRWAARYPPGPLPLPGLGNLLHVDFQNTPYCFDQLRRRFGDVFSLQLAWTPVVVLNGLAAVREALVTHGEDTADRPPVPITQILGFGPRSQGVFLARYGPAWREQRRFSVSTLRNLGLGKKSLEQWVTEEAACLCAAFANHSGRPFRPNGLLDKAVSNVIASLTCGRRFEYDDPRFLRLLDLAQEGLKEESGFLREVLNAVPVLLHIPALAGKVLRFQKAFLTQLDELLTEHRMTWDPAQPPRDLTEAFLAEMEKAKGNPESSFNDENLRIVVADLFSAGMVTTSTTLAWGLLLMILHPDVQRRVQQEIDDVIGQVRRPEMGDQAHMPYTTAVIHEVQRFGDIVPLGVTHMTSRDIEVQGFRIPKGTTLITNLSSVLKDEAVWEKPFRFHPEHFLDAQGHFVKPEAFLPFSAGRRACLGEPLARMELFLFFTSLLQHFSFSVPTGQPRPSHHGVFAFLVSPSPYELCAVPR
structure (smiles),measurement,setting,value
"C[C@@H]1CN(c2ccc(C#N)c3ncccc23)C[C@H](CN2CCC(c3cccc(N4CCNCC4)c3)C2)O1 (stereo partly drawn) [Example 1, 5-[(2R,6S)-2-methyl-6-[[3-(3-piperazin-1-ylphenyl)pyrrolidin-1-yl]methyl]morpholin-4-yl]quinoline-8-carbonitrile]","inhibition at 10 min, 10 µM",[1],5%
"C[C@@H]1CN(c2ccc(C#N)c3ncccc23)C[C@H](CN2CCC(c3cccc(C4CCNCC4)c3)CC2)O1 [Example 2, 5-[(2R,6S)-2-methyl-6-[[4-[3-(4-piperidyl)phenyl]-1-piperidyl]methyl]morpholin-4-yl]quinoline-8-carbonitrile]","inhibition at 10 min, 10 µM",[1],20%
"C[C@@H]1CN(c2ccc(C#N)c3ncccc23)C[C@H](CN2CC(c3ccc(N4CCNCC4)cc3)C2)O1 [Example 3, 5-[(2R,6S)-2-methyl-6-[[3-(4-piperazin-1-ylphenyl)azetidin-1-yl]methyl]morpholin-4-yl]quinoline-8-carbonitrile]","inhibition at 10 min, 10 µM",[1],13.5%
"C[C@@H]1CN(c2ccc(C#N)c3ncccc23)C[C@H](CN2CC(c3cccc(N4CCNCC4)c3)C2)O1 [Example 4, 5-[(2R,6S)-2-methyl-6-[[3-(3-piperazin-1-ylphenyl)azetidin-1-yl]methyl]morpholin-4-yl]quinoline-8-carbonitrile]","inhibition at 10 min, 10 µM",[1],11%
"CO[C@@H]1CN(c2nccc(N3CCN(C[C@H]4CN(c5ccc(C#N)c6nccnc56)C[C@@H](C)O4)CC3)n2)C[C@H]1N [Example 98, 8-[(2S,6R)-2-[[4-[2-[(3R,4R)-3-amino-4-methoxy-pyrrolidin-1-yl]pyrimidin-4-yl]piperazin-1-yl]methyl]-6-methyl-morpholin-4-yl]quinoxaline-5-carbonitrile]",IC20,[2],> 10 µM
same,IC50,[2],> 20 µM
same,hERG IC20/TLR7 IC50,[2],>1666
same,hERG IC20/TLR8 IC50,[2],>10000
same,hERG IC20/TLR9 IC50,[2],>204
"CO[C@H]1CN(c2nccc(N3CCN(C[C@H]4CN(c5ccc(C#N)c6nccnc56)C[C@@H](C)O4)CC3)n2)C[C@@H]1N [Example 99, 8-[(2S,6R)-2-[[4-[2-[(3S,4S)-3-amino-4-methoxy-pyrrolidin-1-yl]pyrimidin-4-yl]piperazin-1-yl]methyl]-6-methyl-morpholin-4-yl]quinoxaline-5-carbonitrile]",IC20,[2],9 µM
same,IC50,[2],> 20 µM
same,hERG IC20/TLR7 IC50,[2],818
same,hERG IC20/TLR8 IC50,[2],9000
same,hERG IC20/TLR9 IC50,[2],142
"CO[C@H]1CN(c2nc(C)cc(N3CCN(C[C@H]4CN(c5ccc(C#N)c6nccnc56)C[C@@H](C)O4)CC3)n2)C[C@@H]1N [Example 106, 8-[(2S,6R)-2-[[4-[2-[(3S,4S)-3-amino-4-methoxy-pyrrolidin-1-yl]-6-methyl-pyrimidin-4-yl]piperazin-1-yl]methyl]-6-methyl-morpholin-4-yl]quinoxaline-5-carbonitrile]","inhibition at 10 min, 10 µM",[1],3%
"C[C@@H]1CN(c2ccc(C#N)c3nccnc23)C[C@H](CN2CCN(c3ccnc(N4C[C@H](N)[C@@H](F)C4)n3)CC2)O1 [Example 107, 8-[(2S,6R)-2-[[4-[2-[(3S,4S)-3-amino-4-fluoro-pyrrolidin-1-yl]pyrimidin-4-yl]piperazin-1-yl]methyl]-6-methyl-morpholin-4-yl]quinoxaline-5-carbonitrile]","inhibition at 10 min, 10 µM",[1],16%
"C[C@@H]1CN(c2ccc(C#N)c3ncccc23)C[C@H](CN2CCN(c3ccnc(N4C[C@H](N)[C@@H](F)C4)n3)CC2)O1 [Example 110, 5-[(2S,6R)-2-[[4-[2-[(3S,4S)-3-amino-4-fluoro-pyrrolidin-1-yl]pyrimidin-4-yl]piperazin-1-yl]methyl]-6-methyl-morpholin-4-yl]quinoline-8-carbonitrile]","inhibition at 10 min, 10 µM",[1],13.5%
"Cc1cc(N2CCN(C[C@H]3CN(c4ccc(C#N)c5nccnc45)C[C@@H](C)O3)CC2)nc(N2CC(N)C2)n1 [Example 112, 8-[(2S,6R)-2-[[4-[2-(3-aminoazetidin-1-yl)-6-methyl-pyrimidin-4-yl]piperazin-1-yl]methyl]-6-methyl-morpholin-4-yl]quinoxaline-5-carbonitrile]","inhibition at 10 min, 10 µM",[1],-2%
"Cc1ccc(N2C[C@H](CN3CCN(c4nccc(N5CCNCC5)n4)CC3)O[C@H](C)C2)c2nccnc12 [Example 116, (2R,6S)-2-methyl-4-(8-methylquinoxalin-5-yl)-6-[[4-(4-piperazin-1-ylpyrimidin-2-yl)piperazin-1-yl]methyl]morpholine]","inhibition at 10 min, 10 µM",[1],10%
"Cc1ccc(N2C[C@H](CN3CCN(c4ccnc(N5CCNCC5)n4)CC3)O[C@H](C)C2)c2nccnc12 [Example 117, (2R,6S)-2-methyl-4-(8-methylquinoxalin-5-yl)-6-[[4-(2-piperazin-1-ylpyrimidin-4-yl)piperazin-1-yl]methyl]morpholine]","inhibition at 10 min, 10 µM",[1],4.5%
"C[C@@H]1CN(c2ccc(C#N)c3nccnc23)C[C@H](CN2CCN(c3nccc(N4CC(N)C4)n3)CC2)O1 [Example 118, 8-[(2S,6R)-2-[[4-[4-(3-aminoazetidin-1-yl)pyrimidin-2-yl]piperazin-1-yl]methyl]-6-methyl-morpholin-4-yl]quinoxaline-5-carbonitrile]",IC20,[2],> 10 µM
same,IC50,[2],> 20 µM
same,hERG IC20/TLR7 IC50,[2],>2500
same,hERG IC20/TLR8 IC50,[2],>10000
same,hERG IC20/TLR9 IC50,[2],>196
"C[C@@H]1CN(c2ccc(C#N)c3nccnc23)C[C@H](CN2CCN(c3nccc(N4C[C@@H](N)[C@H](F)C4)n3)CC2)O1 [Example 119, 8-[(2S,6R)-2-[[4-[4-[(3R,4R)-3-amino-4-fluoro-pyrrolidin-1-yl]pyrimidin-2-yl]piperazin-1-yl]methyl]-6-methyl-morpholin-4-yl]quinoxaline-5-carbonitrile]","inhibition at 10 min, 10 µM",[1],-8.5%
"[2H]c1ccc2c(N3C[C@H](CN4CCN(c5nc(C)cc(N6C[C@H](OC)[C@@H](N)C6)n5)CC4)O[C@H](C)C3)ccc(C#N)c2n1 [Example 134, 5-[(2S,6R)-2-[[4-[4-[(3S,4S)-3-amino-4-methoxy-pyrrolidin-1-yl]-6-methyl-pyrimidin-2-yl]piperazin-1-yl]methyl]-6-methyl-morpholin-4-yl]-2-deuterio-quinoline-8-carbonitrile]","inhibition at 10 min, 10 µM",[1],-4%
"[2H]c1ccc2c(N3C[C@H](CN4CCN(c5nc(C)cc(N6C[C@@H](N)[C@H](OC)C6)n5)CC4)O[C@H](C)C3)ccc(C#N)c2n1 [Example 144, 5-[(2S,6R)-2-[[4-[4-[(3R,4R)-3-amino-4-methoxy-pyrrolidin-1-yl]-6-methyl-pyrimidin-2-yl]piperazin-1-yl]methyl]-6-methyl-morpholin-4-yl]-2-deuterio-quinoline-8-carbonitrile]",IC20,[2],> 10 µM
same,IC50,[2],> 20 µM
same,hERG IC20/TLR7 IC50,[2],>909
same,hERG IC20/TLR8 IC50,[2],>10000
same,hERG IC20/TLR9 IC50,[2],>322
"[2H]c1ccc2c(N3C[C@H](CN4CCN(c5ccc(N6CC7(CNCCO7)C6)nc5)CC4)O[C@H](C)C3)ccc(C#N)c2n1 [Example 152, 2-deuterio-5-[(2R,6S)-2-methyl-6-[[4-[6-(5-oxa-2,8-diazaspiro[3.5]nonan-2-yl)-3-pyridyl]piperazin-1-yl]methyl]morpholin-4-yl]quinoline-8-carbonitrile]","inhibition at 10 min, 10 µM",[1],12.5%
"C[C@@H]1CN(c2ccc(C#N)n3ncc(F)c23)C[C@H](CN2CC(c3ccc(N4CC(C)(N)C4)nc3)C2)O1 [Example 158, 4-[(2S,6R)-2-[[3-[6-(3-amino-3-methyl-azetidin-1-yl)-3-pyridyl]azetidin-1-yl]methyl]-6-methyl-morpholin-4-yl]-3-fluoro-pyrazolo[1,5-a]pyridine-7-carbonitrile]","inhibition at 10 min, 10 µM",[1],-7.5%
